According to ChEMBL document CHEMBL6109122 (J Med Chem, 2025):
pIC50: −log10 of the molar value. Active and inactive are the calls of the source. The rule behind the calls is not given here.

Columns and labels:
[1] = target: T1, Protein cereblon/Non-receptor tyrosine-protein kinase TYK2 (Homo sapiens, UniProt P29597+Q96SW2); test: PROTAC activity at CRBN/TYK2 in human Jurkat cells assessed as induction of degradation of TYK2 at 10 nM measured after 10 hrs by Western blot analysis relative to control; assay type: cell-based
Target sequence in this assay (P29597 whole entry, looked up): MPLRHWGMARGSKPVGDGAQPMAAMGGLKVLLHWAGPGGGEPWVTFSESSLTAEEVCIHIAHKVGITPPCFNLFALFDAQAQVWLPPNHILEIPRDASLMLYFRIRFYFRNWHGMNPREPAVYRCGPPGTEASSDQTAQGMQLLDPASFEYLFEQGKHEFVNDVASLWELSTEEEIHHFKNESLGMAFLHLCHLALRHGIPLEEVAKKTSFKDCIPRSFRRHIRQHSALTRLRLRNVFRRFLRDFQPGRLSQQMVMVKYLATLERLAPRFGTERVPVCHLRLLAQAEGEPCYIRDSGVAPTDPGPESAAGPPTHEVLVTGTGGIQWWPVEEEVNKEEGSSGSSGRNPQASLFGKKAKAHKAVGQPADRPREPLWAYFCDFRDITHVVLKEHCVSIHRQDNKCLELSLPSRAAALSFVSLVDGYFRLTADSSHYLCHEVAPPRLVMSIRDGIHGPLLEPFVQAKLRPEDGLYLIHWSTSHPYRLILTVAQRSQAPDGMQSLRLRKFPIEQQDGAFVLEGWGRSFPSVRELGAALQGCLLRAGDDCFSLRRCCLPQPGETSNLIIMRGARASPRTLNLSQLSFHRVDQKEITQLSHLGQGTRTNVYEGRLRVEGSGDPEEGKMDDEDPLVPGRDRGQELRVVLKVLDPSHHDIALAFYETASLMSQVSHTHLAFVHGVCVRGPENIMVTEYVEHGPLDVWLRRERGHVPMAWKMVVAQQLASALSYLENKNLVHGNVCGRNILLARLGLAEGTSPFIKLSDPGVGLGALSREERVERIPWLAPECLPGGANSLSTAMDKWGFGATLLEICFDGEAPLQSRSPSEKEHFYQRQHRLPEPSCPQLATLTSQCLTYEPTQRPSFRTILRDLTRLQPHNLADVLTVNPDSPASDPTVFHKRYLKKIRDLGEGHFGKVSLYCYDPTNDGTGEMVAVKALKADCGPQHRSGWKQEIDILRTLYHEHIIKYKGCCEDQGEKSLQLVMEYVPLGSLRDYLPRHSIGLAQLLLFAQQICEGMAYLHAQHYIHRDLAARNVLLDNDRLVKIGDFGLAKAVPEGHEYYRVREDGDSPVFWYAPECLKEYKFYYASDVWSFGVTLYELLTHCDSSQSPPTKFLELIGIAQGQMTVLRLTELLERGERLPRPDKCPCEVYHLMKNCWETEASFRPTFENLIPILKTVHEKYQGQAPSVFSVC
Target sequence in this assay (Q96SW2 whole entry, looked up): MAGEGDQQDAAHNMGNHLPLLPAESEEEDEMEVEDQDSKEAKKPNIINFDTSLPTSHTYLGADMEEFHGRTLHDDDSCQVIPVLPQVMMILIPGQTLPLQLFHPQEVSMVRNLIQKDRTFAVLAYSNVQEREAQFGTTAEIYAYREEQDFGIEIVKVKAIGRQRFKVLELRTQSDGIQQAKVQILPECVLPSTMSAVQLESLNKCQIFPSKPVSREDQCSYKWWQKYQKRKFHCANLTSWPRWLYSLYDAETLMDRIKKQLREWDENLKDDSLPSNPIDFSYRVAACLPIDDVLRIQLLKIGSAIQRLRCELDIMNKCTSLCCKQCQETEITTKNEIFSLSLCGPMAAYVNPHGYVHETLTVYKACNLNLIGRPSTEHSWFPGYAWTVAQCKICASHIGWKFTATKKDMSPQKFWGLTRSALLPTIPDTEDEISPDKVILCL

[2] = target: T1, Protein cereblon/Non-receptor tyrosine-protein kinase TYK2; test: PROTAC activity at CRBN/TYK2 in human Jurkat cells assessed as induction of degradation of TYK2 at 1 nM measured after 10 hrs by Western blot analysis relative to control; assay type: cell-based
Target sequence in this assay (P29597 whole entry, looked up): as the sequence (P29597 whole entry, looked up) above
Target sequence in this assay (Q96SW2 whole entry, looked up): as the sequence (Q96SW2 whole entry, looked up) above

[3] = target: T1, Protein cereblon/Non-receptor tyrosine-protein kinase TYK2; test: PROTAC activity at CRBN/TYK2 in human Jurkat cells assessed as induction of degradation of TYK2 measured after 10 hrs by Western blot analysis; assay type: cell-based
Target sequence in this assay (P29597 whole entry): as the sequence (P29597 whole entry, looked up) above
Target sequence in this assay (Q96SW2 whole entry): as the sequence (Q96SW2 whole entry, looked up) above

[4] = target: T1, Protein cereblon/Non-receptor tyrosine-protein kinase TYK2; test: PROTAC activity at CRBN/TYK2 in human HaCaT cells assessed as induction of degradation of TYK2 measured after 10 hrs by Western blot analysis; assay type: cell-based; conditions: dose 1-100 nM
Target sequence in this assay (P29597 whole entry, looked up): as the sequence (P29597 whole entry, looked up) above
Target sequence in this assay (Q96SW2 whole entry, looked up): as the sequence (Q96SW2 whole entry, looked up) above

[5] = Metabolic stability in mouse liver microsomes assessed as intrinsic clearance measured up to 120 mins by LC-MS/MS analysis; assay type: ADME, Microsome; conditions: read-out: CLH
Jurkat [6] = test: Downregulation of JAK1 protein level in human Jurkat cells at 1 to 100 nM measured after 10 hrs by Western blot analysis; assay type: functional, cell-based; conditions: dose 1-100 nM
Jurkat [7] = test: Downregulation of JAK3 protein level in human Jurkat cells at 1 to 100 nM measured after 10 hrs by Western blot analysis; assay type: functional, cell-based; conditions: dose 1-100 nM
Jurkat [8] = test: Downregulation of TYK2 protein level in human Jurkat cells at 1 to 100 nM measured after 10 hrs by Western blot analysis; assay type: functional, cell-based; conditions: dose 1-100 nM
Jurkat [9] = test: Effect on JAK1 protein level in human Jurkat cells at 30 nM measured after 4 hrs by DIA-Based Proteomic analysis; assay type: functional, cell-based
Jurkat [10] = test: Effect on JAK3 protein level in human Jurkat cells at 30 nM measured after 4 hrs by DIA-Based Proteomic analysis; assay type: functional, cell-based
Jurkat [11] = test: Downregulation of Ikaros level in human Jurkat cells at 30 nM measured after 4 hrs by DIA-Based Proteomic analysis; assay type: functional, cell-based
[12] = target: Tyrosine-protein kinase JAK2 (Homo sapiens, UniProt O60674); test: Binding affinity to JAK2 (unknown origin) by ADP-glo kinase assay
[13] = target: Non-receptor tyrosine-protein kinase TYK2 (Homo sapiens, UniProt P29597); test: Displacement of fluorophore-labeled probe from TYK2 JH2 domain (unknown origin) by HTRF assay
[14] = Inhibition of TYK2 dependent STAT3 phosphorylation in IL-12 stimulated human PBMC cells preincubated for 60 mins followed by IL-12 stimulation and measured after 60 mins by FACS assay; assay type: cell-based
[15] = Selectivity ratio of IC50 for displacement of fluorophore-labeled probe from JAK2 JH2 domain (unknown origin) to IC50 for displacement of fluorophore-labeled probe from TYK2 JH2 domain (unknown origin)
[16] = target: T1, Protein cereblon/Non-receptor tyrosine-protein kinase TYK2; test: PROTAC activity at CRBN/TYK2 in human Jurkat cells assessed as induction of degradation of TYK2 at 10 nM measured after 10 to 36 hrs by Western blot analysis relative to control; assay type: cell-based; conditions: time 10-36 hrs
Target sequence in this assay (P29597 whole entry, looked up): as the sequence (P29597 whole entry, looked up) above
Target sequence in this assay (Q96SW2 whole entry, looked up): as the sequence (Q96SW2 whole entry, looked up) above

[17] = target: T1, Protein cereblon/Non-receptor tyrosine-protein kinase TYK2; test: PROTAC activity at CRBN/TYK2 in human Jurkat cells assessed as induction of degradation of TYK2 at 10 nM preincubated for 24 hrs followed by compound washout and followed by incubation in compound free medium by Western blot analysis; assay type: cell-based
Target sequence in this assay (P29597 whole entry, looked up): as the sequence (P29597 whole entry, looked up) above
Target sequence in this assay (Q96SW2 whole entry, looked up): as the sequence (Q96SW2 whole entry, looked up) above

[18] = target: T1, Protein cereblon/Non-receptor tyrosine-protein kinase TYK2; test: PROTAC activity at CRBN/TYK2 in human Jurkat cells assessed as induction of degradation of TYK2 at 10 nM preincubated with MG132 for 2 hrs followed by compound addition and measured after 10 hrs by Western blot analysis; assay type: cell-based
Target sequence in this assay (P29597 whole entry, looked up): as the sequence (P29597 whole entry, looked up) above
Target sequence in this assay (Q96SW2 whole entry, looked up): as the sequence (Q96SW2 whole entry, looked up) above

[19] = target: T1, Protein cereblon/Non-receptor tyrosine-protein kinase TYK2; test: PROTAC activity at CRBN/TYK2 in human Jurkat cells assessed as induction of degradation of TYK2 at 10 nM preincubated with deucravacitinib for 2 hrs followed by compound addition and measured after 10 hrs by Western blot analysis; assay type: cell-based
[20] = target: T1, Protein cereblon/Non-receptor tyrosine-protein kinase TYK2; test: PROTAC activity at CRBN/TYK2 in human Jurkat cells assessed as induction of degradation of TYK2 at 10 nM preincubated with bortezomib for 2 hrs followed by compound addition and measured after 10 hrs by Western blot analysis; assay type: cell-based
[21] = target: T1, Protein cereblon/Non-receptor tyrosine-protein kinase TYK2; test: PROTAC activity at CRBN/TYK2 in human Jurkat cells assessed as induction of degradation of TYK2 at 10 nM preincubated with MLN4924 for 2 hrs followed by compound addition and measured after 10 hrs by Western blot analysis; assay type: cell-based
[22] = target: T1, Protein cereblon/Non-receptor tyrosine-protein kinase TYK2; test: PROTAC activity at CRBN/TYK2 in human Jurkat cells assessed as induction of degradation of TYK2 at 10 nM preincubated with cycloheximide for 2 hrs followed by compound addition and measured after 10 hrs by Western blot analysis; assay type: cell-based
[23] = Cmax in male ICR mouse at 5 mg/kg, ip measured up to 24 hrs by LC-MS/MS analysis; assay type: ADME, organism-based; conditions: in vivo
[24] = AUC (0 to t) in male ICR mouse at 5 mg/kg, ip measured up to 24 hrs by LC-MS/MS analysis; assay type: ADME, organism-based; conditions: in vivo
[25] = MRT (0 to infinity) in male ICR mouse at 5 mg/kg, ip measured up to 24 hrs by LC-MS/MS analysis; assay type: ADME, organism-based; conditions: in vivo
Mus musculus [26] = test: Anti-inflammatory activity in imiquimod-induced female BALB/c mouse psoriasis model assessed as reduction in psoriasis area severity index at 5 mg/kg, ip administered daily topically for 6 days; assay type: functional, organism-based; conditions: time 6.0 day
Mus musculus [27] = test: Anti-inflammatory activity in imiquimod-induced female BALB/c mouse psoriasis model assessed as reduction in micro abscess at 5 mg/kg, ip administered daily topically for 6 days by H and E staining based analysis; assay type: functional, organism-based; conditions: time 6.0 day
Mus musculus [28] = test: Anti-inflammatory activity in imiquimod-induced female BALB/c mouse psoriasis model assessed as reduction in hyperkeratosis at 5 mg/kg, ip administered daily topically for 6 days by H and E staining based analysis; assay type: functional, organism-based; conditions: time 6.0 day
Mus musculus [29] = test: Anti-inflammatory activity in imiquimod-induced female BALB/c mouse psoriasis model assessed as reduction in inflammatory infiltration at 5 mg/kg, ip administered daily topically for 6 days by H and E staining based analysis; assay type: functional, organism-based; conditions: time 6.0 day
Mus musculus [30] = species on record: Mus musculus; test: Anti-inflammatory activity in imiquimod-induced female BALB/c mouse psoriasis model assessed as reduction in IL-23 expression in serum by ELISA method; assay type: functional, organism-based
Mus musculus [31] = species on record: Mus musculus; test: Anti-inflammatory activity in imiquimod-induced female BALB/c mouse psoriasis model assessed as reduction in IL-17 expression in skin by ELISA method; assay type: functional, organism-based
Mus musculus [32] = test: Anti-inflammatory activity in imiquimod-induced female BALB/c mouse psoriasis model assessed as alleviation of psoriasis pathology at 15 mg/kg, ip administered daily topically for 6 days; assay type: functional, organism-based; conditions: time 6.0 day
Mus musculus [33] = test: Anti-inflammatory activity in imiquimod-induced female BALB/c mouse psoriasis model assessed as reduction in IL-17 expression in skin at 15 mg/kg, ip administered daily topically for 6 days by ELISA method; assay type: functional, organism-based; conditions: time 6.0 day
Mus musculus [34] = test: Anti-inflammatory activity in imiquimod-induced female BALB/c mouse psoriasis model assessed as reduction in IL-23 expression in skin at 15 mg/kg, ip administered daily topically for 6 days by ELISA method; assay type: functional, organism-based; conditions: time 6.0 day

Sequence of Non-receptor tyrosine-protein kinase TYK2 (P29597 whole entry, the tested form may be a part): as the sequence (P29597 whole entry, looked up) above
Sequence of Tyrosine-protein kinase JAK2 (O60674 whole entry, the tested form may be a part): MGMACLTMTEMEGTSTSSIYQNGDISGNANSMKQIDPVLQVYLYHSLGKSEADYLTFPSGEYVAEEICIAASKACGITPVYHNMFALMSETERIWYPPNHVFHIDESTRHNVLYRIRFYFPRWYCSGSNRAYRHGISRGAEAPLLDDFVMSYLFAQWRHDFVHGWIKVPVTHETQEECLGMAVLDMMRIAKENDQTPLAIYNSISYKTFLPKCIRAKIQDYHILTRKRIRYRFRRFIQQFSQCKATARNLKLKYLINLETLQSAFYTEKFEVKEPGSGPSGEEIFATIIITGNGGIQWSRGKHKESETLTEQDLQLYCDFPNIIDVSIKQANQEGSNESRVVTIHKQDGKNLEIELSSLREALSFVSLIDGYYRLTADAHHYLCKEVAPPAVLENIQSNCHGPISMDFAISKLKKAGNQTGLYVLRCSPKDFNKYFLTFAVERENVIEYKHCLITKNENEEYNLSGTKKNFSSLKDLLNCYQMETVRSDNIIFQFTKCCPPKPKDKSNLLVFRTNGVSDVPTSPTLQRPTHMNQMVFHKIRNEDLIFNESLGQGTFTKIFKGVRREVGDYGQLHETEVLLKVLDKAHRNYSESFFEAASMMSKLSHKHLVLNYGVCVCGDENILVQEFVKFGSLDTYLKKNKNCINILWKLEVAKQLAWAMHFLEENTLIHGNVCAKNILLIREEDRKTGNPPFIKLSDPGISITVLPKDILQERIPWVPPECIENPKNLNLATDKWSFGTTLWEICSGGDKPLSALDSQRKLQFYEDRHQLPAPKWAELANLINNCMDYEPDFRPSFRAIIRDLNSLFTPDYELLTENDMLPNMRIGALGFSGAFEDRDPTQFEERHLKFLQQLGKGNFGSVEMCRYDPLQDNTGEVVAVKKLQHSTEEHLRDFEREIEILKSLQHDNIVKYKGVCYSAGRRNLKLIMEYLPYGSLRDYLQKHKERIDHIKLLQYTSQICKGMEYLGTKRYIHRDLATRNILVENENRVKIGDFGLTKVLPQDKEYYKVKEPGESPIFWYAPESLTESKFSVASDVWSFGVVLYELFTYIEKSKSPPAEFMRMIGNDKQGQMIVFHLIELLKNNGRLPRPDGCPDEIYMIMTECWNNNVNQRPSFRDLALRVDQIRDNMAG

`CNC(=O)c1cnc(Nc2ccc(C(=O)NC3CCC(Nc4ccc5c(c4)C(=O)N(C4CCC(=O)NC4=O)C5=O)CC3)cn2)cc1Nc1cccc(-c2ncc(F)cn2)c1OC` (centres undefined) showed an Activity [1] of 96%, an Activity [2] of 63% and a DC50 [3] of 0.42 nM. For the same molecule, the Activity [4] was “Dose-dependent-effect”, the CLint scaled [5] was 54 mL/min/kg and the Activity (Jurkat [6]) was “Active”. The Activity (Jurkat [7]) was “Active”, the Activity (Jurkat [8]) was “Active” and the Activity (Jurkat [9]) was “inactive”. For the same molecule, the Activity (Jurkat [10]) was “inactive”, the Activity (Jurkat [11]) was “inactive” and the pIC50 [12] was under 5.00. The pIC50 [13] was 8.92, the pIC50 [14] was 8.07 and the Ratio IC50 [15] was over 80. The Activity [16] was 90%, the Activity [17] was “inactive” and the Activity [18] was “inactive”. For the same molecule, the Activity [19] was “inactive”, the Activity [20] was “inactive” and the Activity [21] was “inactive”. The Activity [22] was “Active”, the Cmax [23] was 1300 ng/mL and the AUC(0-t) at 24 h [24] was 4770 ng·h/mL. For the same molecule, the MRT inf [25] was 4.2 h, the Activity (Mus musculus [26]) was “Active” and the Activity (Mus musculus [27]) was “Active”. For the same molecule, the Activity (Mus musculus [28]) was “Active”, the Activity (Mus musculus [29]) was “Active” and the Activity (Mus musculus [30]) was “Active”. For the same molecule, the Activity (Mus musculus [31]) was “Active”, the Activity (Mus musculus [32]) was “Active” and the Activity (Mus musculus [33]) was “Active”. The Activity (Mus musculus [34]) was “Active”.
